pIC50: −log10 of the molar value. Activity calls are given as the source filed them. The calls are words filed in the database; no cut-off is given here.
Experiments:
Ephrin type-A receptor 7 = Ephrin type-A receptor 7 (Homo sapiens, UniProt Q15375); experiment: Inhibition of human EPHA7 using poly (Glu, Tyr)4:1 as substrate in presence of [gamma33P]-ATP by HotSpot assay
[1] = molecular target: cGMP-dependent protein kinase 1 (Homo sapiens) (UniProt Q13976); experiment: Inhibition of human PKG1b at 1 uM using LRRASLG as substrate in presence of [gamma33P]-ATP by HotSpot assay relative to control
[2] = molecular target: Tyrosine-protein kinase JAK1 (Homo sapiens) (UniProt P23458); experiment: Inhibition of human JAK1 at 1 uM using MBP as substrate in presence of [gamma33P]-ATP by HotSpot assay relative to control
[3] = molecular target: Ribosomal protein S6 kinase alpha-2 (Homo sapiens, UniProt Q15349); experiment: Inhibition of human RPS6kA2 using KKLNRTLSVA as substrate in presence of [gamma33P]-ATP by HotSpot assay
[4] = molecular target: Serine/threonine-protein kinase Sgk2 (Homo sapiens) (UniProt Q9HBY8); experiment: Inhibition of human SGK2 at 1 uM using KGSGSGRPRTSSFAEG as substrate in presence of [gamma33P]-ATP by HotSpot assay relative to control
Chain of Serine/threonine-protein kinase Sgk2 (Homo sapiens) (Q9HBY8 whole entry): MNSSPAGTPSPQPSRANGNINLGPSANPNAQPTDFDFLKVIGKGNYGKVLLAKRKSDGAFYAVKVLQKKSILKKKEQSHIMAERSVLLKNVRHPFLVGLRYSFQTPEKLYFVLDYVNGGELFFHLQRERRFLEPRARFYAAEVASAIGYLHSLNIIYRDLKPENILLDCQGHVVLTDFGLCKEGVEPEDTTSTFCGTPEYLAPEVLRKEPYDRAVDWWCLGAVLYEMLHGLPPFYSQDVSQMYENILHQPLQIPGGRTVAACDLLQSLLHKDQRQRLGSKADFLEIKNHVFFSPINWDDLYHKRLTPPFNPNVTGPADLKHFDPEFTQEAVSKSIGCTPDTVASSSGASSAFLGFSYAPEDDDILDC

KARPAS-299 = experiment: Inhibition of ERK phosphorylation in ALK-positive human KARPAS-299 cells at 1 to 1000 nM incubated for 1 hrs by immunoblot analysis; type: cell-based; conditions: dose 1-1000 nM
[5] = molecular target: Homeodomain-interacting protein kinase 2 (Homo sapiens) (UniProt Q9H2X6); experiment: Inhibition of human HIPK2 at 1 uM using MBP as substrate in presence of [gamma33P]-ATP by HotSpot assay relative to control
[6] = system: EML4-ALK (Homo sapiens), Q9UM73+Q9HC35 [S1206F]; conditions: BaF3, dose 500.0 nmol/L, time 3-5 weeks
[7] = molecular target: cGMP-dependent protein kinase 2 (Homo sapiens) (UniProt Q13237); experiment: Inhibition of human PRKG2 at 1 uM using LRRASLG as substrate in presence of [gamma33P]-ATP by HotSpot assay relative to control
[8] = molecular target: Non-receptor tyrosine-protein kinase TYK2 (Homo sapiens) (UniProt P29597); experiment: Inhibition of human TYK2 at 1 uM using KKSRGDYMTMQIG as substrate in presence of [gamma33P]-ATP by HotSpot assay relative to control
Chain of Non-receptor tyrosine-protein kinase TYK2 (Homo sapiens) (P29597 whole entry): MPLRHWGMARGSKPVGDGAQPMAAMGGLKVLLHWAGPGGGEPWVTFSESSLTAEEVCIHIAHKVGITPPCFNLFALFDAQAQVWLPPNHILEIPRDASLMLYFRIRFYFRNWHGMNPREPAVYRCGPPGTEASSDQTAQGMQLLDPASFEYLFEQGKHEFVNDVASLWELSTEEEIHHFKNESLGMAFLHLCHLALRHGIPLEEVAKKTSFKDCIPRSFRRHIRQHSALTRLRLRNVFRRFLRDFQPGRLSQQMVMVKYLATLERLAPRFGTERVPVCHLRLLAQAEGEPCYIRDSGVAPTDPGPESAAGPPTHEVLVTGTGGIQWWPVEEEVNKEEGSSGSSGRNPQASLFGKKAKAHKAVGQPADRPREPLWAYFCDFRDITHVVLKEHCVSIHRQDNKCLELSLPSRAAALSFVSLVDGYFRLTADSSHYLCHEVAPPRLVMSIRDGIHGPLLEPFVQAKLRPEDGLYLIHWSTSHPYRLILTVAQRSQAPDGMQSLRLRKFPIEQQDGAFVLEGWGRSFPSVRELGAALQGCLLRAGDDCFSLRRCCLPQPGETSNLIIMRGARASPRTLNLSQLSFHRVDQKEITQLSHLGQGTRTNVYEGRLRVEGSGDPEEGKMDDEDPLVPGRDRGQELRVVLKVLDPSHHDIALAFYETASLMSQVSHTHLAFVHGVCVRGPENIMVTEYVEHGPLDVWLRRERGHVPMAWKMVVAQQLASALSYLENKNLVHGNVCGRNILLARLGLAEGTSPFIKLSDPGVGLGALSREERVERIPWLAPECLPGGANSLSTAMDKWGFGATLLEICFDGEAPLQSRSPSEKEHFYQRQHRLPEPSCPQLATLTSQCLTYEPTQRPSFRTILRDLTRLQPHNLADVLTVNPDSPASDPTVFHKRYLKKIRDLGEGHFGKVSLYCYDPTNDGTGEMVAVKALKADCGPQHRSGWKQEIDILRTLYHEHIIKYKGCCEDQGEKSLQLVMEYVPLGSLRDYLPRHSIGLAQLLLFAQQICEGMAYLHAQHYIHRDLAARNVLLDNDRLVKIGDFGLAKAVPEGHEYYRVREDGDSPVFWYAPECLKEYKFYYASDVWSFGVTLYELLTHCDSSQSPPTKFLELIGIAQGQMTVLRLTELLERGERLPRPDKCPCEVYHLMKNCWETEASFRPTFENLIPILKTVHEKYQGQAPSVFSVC

[9] = molecular target: Serine/threonine-protein kinase pim-1 (Homo sapiens) (UniProt P11309); experiment: Inhibition of human PIM1 at 1 uM using RSRHSSYPAGT as substrate in presence of [gamma33P]-ATP by HotSpot assay relative to control
Chain of Serine/threonine-protein kinase pim-1 (Homo sapiens) (P11309 whole entry, looked up): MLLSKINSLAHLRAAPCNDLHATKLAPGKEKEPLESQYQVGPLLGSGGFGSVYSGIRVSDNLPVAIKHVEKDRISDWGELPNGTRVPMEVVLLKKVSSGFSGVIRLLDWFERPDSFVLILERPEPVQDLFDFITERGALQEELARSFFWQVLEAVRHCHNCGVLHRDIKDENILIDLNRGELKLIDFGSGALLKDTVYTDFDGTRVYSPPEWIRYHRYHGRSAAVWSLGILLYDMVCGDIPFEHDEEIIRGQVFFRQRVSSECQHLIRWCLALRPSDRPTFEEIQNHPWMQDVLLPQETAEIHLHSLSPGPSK

[10] = system: Epidermal growth factor receptor (Homo sapiens), P00533 [UNDEFINED MUTATION]; conditions: BaF3, time 72.0 hrs
[11] = molecular target: Serine/threonine-protein kinase PAK 4 (Homo sapiens) (UniProt O96013); experiment: Inhibition of human PAK4 at 1 uM using RRRLSFAEPG as substrate in presence of [gamma33P]-ATP by HotSpot assay relative to control
[12] = system: EML4-ALK (Homo sapiens), Q9UM73+Q9HC35 [L1196M]; conditions: BaF3, dose 200.0 nmol/L, time 3-5 weeks
cells = conditions: Homo sapiens, BaF3, 72 h
[13] = molecular target: Serine/threonine-protein kinase 33 (Homo sapiens) (UniProt Q9BYT3); experiment: Inhibition of human STK33 at 1 uM using MBP as substrate in presence of [gamma33P]-ATP by HotSpot assay relative to control
Chain of Serine/threonine-protein kinase 33 (Homo sapiens) (Q9BYT3 whole entry, looked up): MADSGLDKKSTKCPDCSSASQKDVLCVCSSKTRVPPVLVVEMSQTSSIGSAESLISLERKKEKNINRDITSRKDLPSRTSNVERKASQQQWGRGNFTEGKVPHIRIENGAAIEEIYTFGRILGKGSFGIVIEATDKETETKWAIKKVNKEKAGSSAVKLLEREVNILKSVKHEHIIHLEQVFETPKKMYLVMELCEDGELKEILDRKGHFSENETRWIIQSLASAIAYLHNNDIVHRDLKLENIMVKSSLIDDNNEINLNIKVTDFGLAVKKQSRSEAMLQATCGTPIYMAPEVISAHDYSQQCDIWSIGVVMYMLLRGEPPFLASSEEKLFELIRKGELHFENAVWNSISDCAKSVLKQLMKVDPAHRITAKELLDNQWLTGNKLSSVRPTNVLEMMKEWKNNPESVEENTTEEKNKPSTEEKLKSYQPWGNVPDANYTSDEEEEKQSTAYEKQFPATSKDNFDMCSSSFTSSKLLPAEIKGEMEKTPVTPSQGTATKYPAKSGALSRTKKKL

[14] = molecular target: Leucine-rich repeat serine/threonine-protein kinase 2 (Homo sapiens, UniProt Q5S007); experiment: Inhibition of human LRRK2 using RLGRDKYKTLRQIRQ as substrate in presence of [gamma33P]-ATP by HotSpot assay
Ephrin type-A receptor 1 = Ephrin type-A receptor 1 (Homo sapiens, UniProt P21709); experiment: Inhibition of human EPHA1 using poly (Glu, Tyr)4:1 as substrate in presence of [gamma33P]-ATP by HotSpot assay
[15] = system: EML4-ALK (Homo sapiens), Q9UM73+Q9HC35 [G1269A]; conditions: BaF3, time 3-5 weeks
[16] = molecular target: Tyrosine-protein kinase receptor UFO (Homo sapiens) (UniProt P30530); experiment: Inhibition of human AXL at 1 uM using poly (Glu, Tyr)4:1 as substrate in presence of [gamma33P]-ATP by HotSpot assay relative to control
Chain of Tyrosine-protein kinase receptor UFO (Homo sapiens) (P30530 whole entry): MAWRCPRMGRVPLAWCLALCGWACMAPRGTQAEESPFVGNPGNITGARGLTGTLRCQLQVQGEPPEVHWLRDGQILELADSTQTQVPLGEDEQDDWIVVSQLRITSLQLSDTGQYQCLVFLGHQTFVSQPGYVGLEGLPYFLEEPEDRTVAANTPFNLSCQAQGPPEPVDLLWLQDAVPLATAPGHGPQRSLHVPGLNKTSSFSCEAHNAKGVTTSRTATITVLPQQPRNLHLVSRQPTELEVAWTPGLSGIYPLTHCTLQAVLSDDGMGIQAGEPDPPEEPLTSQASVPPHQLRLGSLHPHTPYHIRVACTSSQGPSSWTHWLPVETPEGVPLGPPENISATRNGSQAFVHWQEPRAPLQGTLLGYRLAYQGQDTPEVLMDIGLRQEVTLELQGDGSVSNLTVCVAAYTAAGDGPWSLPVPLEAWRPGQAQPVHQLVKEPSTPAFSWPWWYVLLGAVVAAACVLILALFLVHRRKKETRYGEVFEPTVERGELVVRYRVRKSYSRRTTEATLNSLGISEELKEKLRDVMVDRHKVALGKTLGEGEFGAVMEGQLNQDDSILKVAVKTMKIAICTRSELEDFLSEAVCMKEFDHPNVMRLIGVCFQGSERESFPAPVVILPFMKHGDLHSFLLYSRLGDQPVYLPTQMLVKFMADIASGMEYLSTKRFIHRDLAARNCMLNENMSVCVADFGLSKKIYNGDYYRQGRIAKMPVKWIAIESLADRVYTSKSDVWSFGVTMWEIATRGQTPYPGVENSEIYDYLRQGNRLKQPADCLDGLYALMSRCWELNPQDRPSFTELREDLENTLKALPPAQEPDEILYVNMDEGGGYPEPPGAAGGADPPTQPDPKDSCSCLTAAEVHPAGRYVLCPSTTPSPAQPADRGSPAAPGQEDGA

NCI-H3122 = experiment: Inhibition of ERK phosphorylation in ALK-positive human NCI-H3122 cells at 1 to 1000 nM incubated for 1 hrs by immunoblot analysis; type: cell-based; conditions: dose 1-1000 nM
[17] = molecular target: cAMP-dependent protein kinase catalytic subunit PRKX (Homo sapiens) (UniProt P51817); experiment: Inhibition of human PRKX at 1 uM using LRRASLG as substrate in presence of [gamma33P]-ATP by HotSpot assay relative to control
Chain of cAMP-dependent protein kinase catalytic subunit PRKX (Homo sapiens) (P51817 whole entry): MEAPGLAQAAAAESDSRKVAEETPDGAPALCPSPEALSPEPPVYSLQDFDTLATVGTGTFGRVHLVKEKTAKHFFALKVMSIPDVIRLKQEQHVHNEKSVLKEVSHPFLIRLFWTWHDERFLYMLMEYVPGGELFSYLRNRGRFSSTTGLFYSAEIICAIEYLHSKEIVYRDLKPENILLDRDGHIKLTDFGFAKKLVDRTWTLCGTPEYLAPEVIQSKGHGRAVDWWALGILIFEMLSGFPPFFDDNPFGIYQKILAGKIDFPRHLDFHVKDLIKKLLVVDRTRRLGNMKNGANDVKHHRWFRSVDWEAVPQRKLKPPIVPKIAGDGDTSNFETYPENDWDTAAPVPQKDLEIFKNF

[18] = molecular target: Serine/threonine-protein kinase Nek11 (Homo sapiens) (UniProt Q8NG66); experiment: Inhibition of human NEK11 at 1 uM using MBP as substrate in presence of [gamma33P]-ATP by HotSpot assay relative to control
[19] = molecular target: Interleukin-1 receptor-associated kinase 1 (Homo sapiens) (UniProt P51617); experiment: Inhibition of human IRAK1 at 1 uM using MBP as substrate in presence of [gamma33P]-ATP by HotSpot assay relative to control
[20] = molecular target: Serine/threonine-protein kinase TAO2 (Homo sapiens) (UniProt Q9UL54); experiment: Inhibition of human TAOK2 at 1 uM using MBP as substrate in presence of [gamma33P]-ATP by HotSpot assay relative to control
DEL = conditions: time 72 hrs
NCI-H2228 = experiment: Antitumor activity against ALK positive human NCI-H2228 cells xenografted in SCID beige mouse assessed as inhibition of tumor growth administered orally once daily for 21 days; type: functional, cell-based; conditions: dose 10-50 mg/kg, route po, time 21.0 day
[21] = molecular target: Serine/threonine-protein kinase PAK 1 (Homo sapiens) (UniProt Q13153); experiment: Inhibition of human PAK1 at 1 uM using RRRLSFAEPG as substrate in presence of [gamma33P]-ATP by HotSpot assay relative to control
[22] = molecular target: [Pyruvate dehydrogenase (acetyl-transferring)] kinase isozyme 1, mitochondrial (Homo sapiens) (UniProt Q15118); experiment: Inhibition of human PDK1 at 1 uM using MBP as substrate in presence of [gamma33P]-ATP by HotSpot assay relative to control

Chain of Ephrin type-A receptor 7 (Q15375 whole entry): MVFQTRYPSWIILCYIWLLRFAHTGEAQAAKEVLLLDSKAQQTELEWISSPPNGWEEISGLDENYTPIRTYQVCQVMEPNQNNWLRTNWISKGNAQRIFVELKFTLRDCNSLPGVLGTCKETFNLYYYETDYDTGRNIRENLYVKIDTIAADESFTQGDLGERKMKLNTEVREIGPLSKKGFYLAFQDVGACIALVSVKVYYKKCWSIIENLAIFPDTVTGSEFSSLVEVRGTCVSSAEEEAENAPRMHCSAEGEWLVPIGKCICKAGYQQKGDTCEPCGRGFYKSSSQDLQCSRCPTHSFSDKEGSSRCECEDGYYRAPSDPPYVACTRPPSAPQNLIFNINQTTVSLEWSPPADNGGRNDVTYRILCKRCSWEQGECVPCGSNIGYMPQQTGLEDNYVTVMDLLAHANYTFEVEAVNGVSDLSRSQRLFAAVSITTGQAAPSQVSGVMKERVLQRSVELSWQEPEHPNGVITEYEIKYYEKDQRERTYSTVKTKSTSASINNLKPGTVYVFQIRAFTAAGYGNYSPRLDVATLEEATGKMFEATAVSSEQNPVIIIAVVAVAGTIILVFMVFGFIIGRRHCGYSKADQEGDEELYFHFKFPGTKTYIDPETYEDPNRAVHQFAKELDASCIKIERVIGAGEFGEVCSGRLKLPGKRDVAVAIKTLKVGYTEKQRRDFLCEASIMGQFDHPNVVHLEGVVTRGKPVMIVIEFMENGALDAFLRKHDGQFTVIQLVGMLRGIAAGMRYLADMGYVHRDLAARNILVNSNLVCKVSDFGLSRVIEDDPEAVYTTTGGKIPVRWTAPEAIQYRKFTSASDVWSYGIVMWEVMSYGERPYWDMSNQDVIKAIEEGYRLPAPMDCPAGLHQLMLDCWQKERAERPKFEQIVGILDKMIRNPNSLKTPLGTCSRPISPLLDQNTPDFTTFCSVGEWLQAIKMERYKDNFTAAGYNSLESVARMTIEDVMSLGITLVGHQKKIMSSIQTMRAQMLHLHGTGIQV

COc1cc(N2CCC(N3CCN(C)CC3)CC2)ccc1Nc1ncc(Cl)c(Nc2ccccc2P(C)(C)=O)n1 [BRIGATINIB]
pIC50 (Ephrin type-A receptor 7): < 6.00
inhibition [1]: < 90%
inhibition [2]: < 90%
pIC50 [3]: 7.89
inhibition [4]: < 90%
inhibition (KARPAS-299): Active
inhibition [5]: < 90%
inhibition [6]: Active
inhibition [7]: < 90%
inhibition [8]: < 90%
inhibition [9]: < 90%
IC90 [10]: 314 nM
inhibition [11]: < 90%
inhibition [12]: inactive
pIC50 (cells): 7.77
inhibition [13]: < 90%
pIC50 [14]: 7.29
pIC50 (Ephrin type-A receptor 1): < 6.00
IC90 [15]: 22 nM
inhibition [16]: < 90%
inhibition (NCI-H3122): Active
inhibition [17]: < 90%
inhibition [18]: < 90%
inhibition [19]: < 90%
inhibition [20]: < 90%
GI50 (DEL): 31 nM
Activity (NCI-H2228): Dose-Dependent Effect
inhibition [21]: < 90%
inhibition [22]: < 90%

— ChEMBL document CHEMBL5696443 (Clin Cancer Res, 2016)
